According to patent US12037354B2, “Cyclic pantetheine derivatives and uses thereof” (VectivBio Comet AG, priority 2018, dated 2024):
Read-outs that look alike come from different tables or passages of the source.

Test system: HepG2 cells
Assay: Glucose uptake Glo Assay, Example 821
Assay type: cell-based
Conditions: for activation at 10 µM / activation at 50 µM: Homo sapiens, 20 min, read-out: % increase in Glucose Uptake
Experimental: The effect of compounds from the present disclosure on glucose uptake was determined in HepG2 cells (ATCC, HB-8065) using the glucose uptake Glo Assay Kit (Promega, 11343 according to manufacturer instructions. HepG2 cells were cultured in complete DMEM-glucose media (Gibco) supplemented with 10% FBS (37° C. incubator with 5% CO2) and seeded in 96-well plates at 30,000 cells/well. After removing the complete media, 100 μL/well of serum-free, high-glucose DMEM media were added to the wells and incubated overnight (37° C. incubator with 5% CO2). Media was then replaced with 100 μl/well DPBS containing 0.6°/o BSA and starved for 1 hour. Next, DPBS was removed and 45 μl/well of insulin (100 nM) or compounds (10 μM-50 μM) were added to the wells and incubated for 10 minutes (37° C. incubator with 5% CO2). Insulin and compounds were prepared in DPBS with 0.6% BSA with a final DMSO concentration of 0.1%. Next, 5 μl of 2DG (10 mM) in DPBS were added per well and allowed to incubate for 20 minutes followed by addition of 25 μl stop buffer. 37.5 μl of the mixture were then transferred to a new plate and 12.5 μl of Neutralization buffer added to the wells. After, 50 μl of 2DG6P detection Reagent were added and incubated for 0.5-1 hour at room temperature. Luminescence was measured with 0.3-1 second integration on a luminometer.

## CC1(C)COP(=O)(O)O[C@H]1C(=O)NCCC(=O)NCCSC(=O)CCC(=O)O [Compound 1]
10 uM (Example 968)
  activation at 10 µM: ≥ 30%

## CC(=O)SCCNC(=O)CCNC(=O)[C@@H]1OP(=O)(O)OCC1(C)C [Compound 2]
10 uM (Example 970)
  activation at 10 µM: ≥ 10%

## CC1(C)COP(=O)(O)O[C@H]1C(=O)NCCC(=O)NCCSC(=O)CC(=O)CCC(=O)O [Compound 3]
10 uM
  activation at 10 µM: ≥ 10%
Concentration tested 10 uM
  % increase in Glucose Uptake: ≥10%

## CC1(C)COP(=O)(O)O[C@H]1C(=O)NCCC(=O)NCCSC(=O)/C=C/C(=O)O [Compound 20]
50 uM
  activation at 50 µM: ≥ 30%
Concentration tested 50 uM
  % increase in Glucose Uptake: ≥30%

## C[C@@H](O)CC(=O)SCCNC(=O)CCNC(=O)[C@@H]1OP(=O)(O)OCC1(C)C [Compound 39]
50 uM
  activation at 50 µM: ≥ 10%
Concentration tested 50 uM
  % increase in Glucose Uptake: ≥10%

## CC(CC(=O)SCCNC(=O)CCNC(=O)[C@@H]1OP(=O)(O)OCC1(C)C)O[C@H](CC(=O)[O-])C[N+](C)(C)C (some centres unmarked) [Compound 47]
50 uM (Example 966)
  activation at 50 µM: ≥ 10%

## COC(=O)CC(SCCNC(=O)CCNC(=O)[C@@H]1OP(=O)(O)OCC1(C)C)C(=O)OCC[N+](C)(C)C (some centres unmarked) [Compound 57]
50 uM (Example 971)
  activation at 50 µM: ≥ 20%

## COC(=O)[C@H](C)NP1(=O)OCC(C)(C)[C@H](C(=O)NCCC(=O)NCCSC(=O)CCC(=O)O)O1 (some centres unmarked) [Compound 63]
50 uM (Example 967)
  activation at 50 µM: ≥ 30%

## COP1(=O)OCC(C)(C)[C@H](C(=O)NCCC(=O)NCCSC(=O)CC(=O)/C=C/C(=O)O)O1 (some centres unmarked) [Compound 117]
10 uM (Example 970)
  activation at 10 µM: ≥ 30%

## C/C=C/C(=O)SCCNC(=O)CCNC(=O)[C@@H]1OP(=O)(OC)OCC1(C)C (some centres unmarked) [Compound 141]
50 uM (Example 969)
  activation at 50 µM: ≥ 30%

## C/C=C/C(=O)SCCNC(=O)CCNC(=O)[C@@H]1OP(=O)(N[C@@H](C)C(=O)OC)OCC1(C)C (some centres unmarked) [Compound 144]
50 uM (Example 969)
  activation at 50 µM: ≥ 30%

## C/C=C/C(=O)SCCNC(=O)CCNC(=O)[C@@H]1OP(=O)(N[C@@H](C)C(=O)O)OCC1(C)C (some centres unmarked) [Compound 145]
10 uM (Example 970)
  activation at 10 µM: ≥ 30%

## COC(=O)[C@H](C)NP1(=O)OCC(C)(C)[C@H](C(=O)NCCC(=O)NCCSC(=O)CC(C)=O)O1 (some centres unmarked) [Compound 157]
50 uM (Example 971)
  activation at 50 µM: ≥ 20%

## CCOP1(=O)OCC(C)(C)[C@H](C(=O)NCCC(=O)NCCSC(=O)CC(=O)CC(=O)CCC(=O)O)O1 (some centres unmarked) [Compound 183]
10 uM (Example 970)
  activation at 10 µM: ≥ 30%

## COC(=O)[C@H](C)NP1(=O)OCC(C)(C)[C@H](C(=O)NCCC(=O)NCCSC(=O)CC(=O)CC(=O)CCC(=O)O)O1 (some centres unmarked) [Compound 185]
50 uM (Example 970)
  activation at 50 µM: ≥ 30%

## CCOC(=O)CCC(=O)CC(=O)CC(=O)SCCNC(=O)CCNC(=O)[C@@H]1OP(=O)(OC)OCC1(C)C (some centres unmarked) [Compound 211]
50 uM (Example 969)
  activation at 50 µM: ≥ 30%

## CCOC(=O)CCC(=O)CC(=O)CC(=O)SCCNC(=O)CCNC(=O)[C@@H]1OP(=O)(N[C@@H](C)C(=O)OC)OCC1(C)C (some centres unmarked) [Compound 213]
50 uM (Example 970)
  activation at 50 µM: ≥ 30%

## CCOC(=O)CCC(=O)CC(=O)CC(=O)SCCNC(=O)CCNC(=O)[C@@H]1OP(=O)(OCC[N+](C)(C)C)OCC1(C)C (some centres unmarked) [Compound 214]
10 uM (Example 972)
  activation at 10 µM: ≥ 20%

## COC(=O)CC(SCCNC(=O)CCNC(=O)[C@@H]1OP(=O)(N[C@@H](C)C(=O)OC)OCC1(C)C)C(=O)OC (some centres unmarked) [Compound 370]
50 uM (Example 969)
  activation at 50 µM: ≥ 30%

## COC(=O)CC(SCCNC(=O)CCNC(=O)[C@@H]1OP(=O)(OCC[N+](C)(C)C)OCC1(C)C)C(=O)OC (some centres unmarked) [Compound 371]
10 uM (Example 969)
  activation at 10 µM: ≥ 30%

## COC(=O)C(CC(=O)O)SCCNC(=O)CCNC(=O)[C@@H]1OP(=O)(OC)OCC1(C)C (some centres unmarked) [Compound 382]
50 uM (Example 970)
  activation at 50 µM: ≥ 30%

## COC(=O)C(CC(=O)OCC[N+](C)(C)C)SCCNC(=O)CCNC(=O)[C@@H]1OP(=O)(Oc2ccccc2)OCC1(C)C (some centres unmarked) [Compound 393]
10 uM (Example 970)
  activation at 10 µM: ≥ 30%

## COP1(=O)OCC(C)(C)[C@H](C(=O)NCCC(=O)NCCSC(CC(=O)OCC[N+](C)(C)C)C(=O)O)O1 (some centres unmarked) [Compound 397]
10 uM (Example 969)
  activation at 10 µM: ≥ 20%

## CCOC(=O)CC(SCCNC(=O)CCNC(=O)[C@@H]1OP(=O)(OC)OCC1(C)C)C(=O)OCC[N+](C)(C)C (some centres unmarked) [Compound 410]
50 uM (Example 969)
  activation at 50 µM: ≥ 30%

## CC1(C)COC(=O)O[C@H]1C(=O)NCCC(=O)NCCSC(=O)CC(=O)CCC(=O)OCC[N+](C)(C)C [Compound 460]
50 uM (Example 969)
  activation at 50 µM: ≥ 30%

## C[C@@H](O)CC(=O)SCCNC(=O)CCNC(=O)[C@@H]1OC(=O)OCC1(C)C [Compound 485]
50 uM
  activation at 50 µM: ≥ 10%
Concentration tested 50 uM
  % increase in Glucose Uptake: ≥10%

## COC(=O)C(CC(=O)O)SCCNC(=O)CCNC(=O)[C@@H]1OC(=O)OCC1(C)C (some centres unmarked) [Compound 498]
50 uM (Example 971)
  activation at 50 µM: ≥ 10%

## COC(=O)CC(SCCNC(=O)CCNC(=O)[C@@H]1OC(=O)OCC1(C)C)C(=O)OCC[N+](C)(C)C (some centres unmarked) [Compound 503]
50 uM (Example 972)
  activation at 50 µM: ≥ 20%

## COC(=O)CC1(C)OCC(C)(C)[C@H](C(=O)NCCC(=O)NCCSC(=O)CCC(=O)O)O1 (some centres unmarked) [Compound 609]
10 uM
  activation at 10 µM: ≥ 10%
Concentration tested 10 uM
  % increase in Glucose Uptake: ≥10%

## COC(=O)CCC(=O)SCCNC(=O)CCNC(=O)[C@@H]1OC(C)(C)OCC1(C)C [Compound 852, methyl 4-oxo-4-[[2-(3-[[(4R)-2,2,5,5-tetramethyl-1,3-dioxan-4-yl]formamido]propanamido)ethyl]sulfanyl]butanoate]
50 uM
  activation at 50 µM: ≥ 20%
Concentration tested 50 uM
  % increase in Glucose Uptake: ≥20%

## CC(=O)NCCCC(=O)SCCNC(=O)CCNC(=O)[C@@H]1OC(C)(C)OCC1(C)C [Compound 853]
10 uM (Example 973)
  % increase in Glucose Uptake: ≥30%
10 uM
  activation at 10 µM: ≥ 30%

## CCCCCCC(=O)SCCNC(=O)CCNC(=O)[C@@H]1OC(C)(C)OCC1(C)C [Compound 855, N-[2-(heptanoylsulfanyl)ethyl]-3-[[(4R)-2,2,5,5-tetramethyl-1,3-dioxan-4-yl]formamido]propanamide]
50 uM
  activation at 50 µM: ≥ 30%
Concentration tested 50 uM
  % increase in Glucose Uptake: ≥30%

## COC(=O)C(=O)SCCNC(=O)CCNC(=O)[C@@H]1OC(C)(C)OCC1(C)C [Compound 856]
10 uM (Example 973)
  % increase in Glucose Uptake: ≥30%
10 uM
  activation at 10 µM: ≥ 30%

## COC(=O)/C=C/C(=O)SCCNC(=O)CCNC(=O)[C@@H]1OC(C)(C)OCC1(C)C [Compound 858, methyl (2E)-4-oxo-4-[[2-(3-[[(4R)-2,2,5,5-tetramethyl-1,3-dioxan-4-yl]formamido]propanamido)ethyl]sulfanyl]but-2-enoate]
10 uM (Example 973)
  % increase in Glucose Uptake: ≥30%
10 uM
  activation at 10 µM: ≥ 30%

## CC(=O)CC(=O)SCCNC(=O)CCNC(=O)[C@@H]1OC(C)(C)OCC1(C)C [Compound 860, N-[2-[(3-oxobutanoyl)sulfanyl]ethyl]-3-[[(4R)-2,2,5,5-tetramethyl-1,3-dioxan-4-yl]formamido]propanamide]
50 uM
  activation at 50 µM: ≥ 10%
Concentration tested 50 uM
  % increase in Glucose Uptake: ≥10%

## CCC(=O)SCCNC(=O)CCNC(=O)[C@@H]1OC(C)(C)OCC1(C)C [Compound 861, N-[2-(propanoylsulfanyl)ethyl]-3-[[(4R)-2,2,5,5-tetramethyl-1,3-dioxan-4-yl]formamido]propanamide]
50 uM
  activation at 50 µM: ≥ 20%
Concentration tested 50 uM
  % increase in Glucose Uptake: ≥20%

## CC1(C)COP(=O)(OCc2ccccc2)O[C@H]1C(=O)NCCC(=O)NCCS (some centres unmarked) [Compound 862]
10 uM
  activation at 10 µM: ≥ 20%
50 uM
  activation at 50 µM: ≥ 10%
Concentration tested 10 uM
  % increase in Glucose Uptake: ≥20%
Concentration tested 50 uM
  % increase in Glucose Uptake: ≥10%

## COC(=O)CCC(=O)SCCNC(=O)CCNC(=O)[C@@H]1OP(=O)(OCc2ccccc2)OCC1(C)C (some centres unmarked) [Compound 863]
50 uM
  activation at 50 µM: ≥ 10%
Concentration tested 50 uM
  % increase in Glucose Uptake: ≥10%

## C[C@@H](O)CC(=O)SCCNC(=O)CCNC(=O)[C@@H]1OP(=O)(OCc2ccccc2)OCC1(C)C (some centres unmarked) [Compound 864]
50 uM
  activation at 50 µM: ≥ 20%
Concentration tested 50 uM
  % increase in Glucose Uptake: ≥20%

## CCOP1(=O)OCC(C)(C)[C@H](C(=O)NCCC(=O)NCCS)O1 (some centres unmarked) [Compound 865]
10 uM
  activation at 10 µM: ≥ 20%
Concentration tested 10 uM
  % increase in Glucose Uptake: ≥20%

## COC(=O)CC1(C)OCC(C)(C)[C@H](C(=O)NCCC(=O)NCCS)O1 (some centres unmarked) [Compound 866]
10 uM (Example 973)
  % increase in Glucose Uptake: ≥30%
10 uM
  activation at 10 µM: ≥ 30%

## C/C=C/C(=O)CC(=O)SCCNC(=O)CCNC(=O)[C@@H]1OP(=O)(OCc2ccccc2)OCC1(C)C (some centres unmarked) [Compound 867]
10 uM
  activation at 10 µM: ≥ 20%
Concentration tested 10 uM
  % increase in Glucose Uptake: ≥20%

## CC1(C)OCC(C)(C)[C@H](C(=O)NCCC(=O)NCCSC(=O)C(=O)O)O1 [Compound 868]
10 uM (Example 973)
  % increase in Glucose Uptake: ≥30%
10 uM
  activation at 10 µM: ≥ 30%

## CC1(C)COP(=O)(O)O[C@H]1C(=O)NCCC(=O)NCCS [Compound 869]
10 uM
  activation at 10 µM: ≥ 10%
Concentration tested 10 uM
  % increase in Glucose Uptake: ≥10%

## CC1(C)OCC(C)(C)[C@H](C(=O)NCCC(=O)NCCSSCCNC(=O)CCNC(=O)[C@@H]2OC(C)(C)OCC2(C)C)O1 [Compound 870]
10 uM
  activation at 10 µM: ≥ 30%
Concentration tested 10 uM
  % increase in Glucose Uptake: ≥30%
